According to patent US20060110341A1, “Cosmetic compositions containing Sophora alopecuroides L. extracts” (Unilever Home & Personal Care USA, Division Of Conopco, Inc., priority 2004, published 2006):
pIC50: −log10 of the molar value.

Molecular target: mushroom tyrosinase (Sigma)
Experiment: Tyrosinase inhibition assay
Format: biochemical
Conditions: for pIC50: 0.5 mM tyrosine, pH 7.00, tyrosinase 60.5 U/mL, read-out: IC50 tyrosinase inhibition activity: components
Method: Determination of melanin content within each MelanoDerm was performed by absorbance measurement at 475 nm. IC50 was determined by Tyrosinase inhibition assay. […] The reaction rate in the first 6.5 min is calculated based on the absorbance change at 475 nm.

Compound | pIC50 | IC50 tyrosinase inhibition activity, in brackets by weight (same value as the μM figure) | tyrosinase inhibition activity (in words)
Oc1ccc(O)cc1 [Hydroquinone, reference compound] | 4.44 | (4 micro-q/ml) micro-g/ml | 
Sophoraflavone K | 6.00 |  | 
C=C(C)[C@H](CC=C(C)C)Cc1c(O)cc(O)c2c1O[C@H](c1ccc(O)cc1O)CC2=O [Sophoraflavone G] | 4.85 |  | 
C=C(C)C(CC=C(C)C)Cc1c2c(c(O)c3c1OC(c1ccc(O)cc1)C3c1cc(O)cc(O)c1)C(=O)CC(c1ccc(O)cc1O)O2 (stereo not drawn) [Alopecurone A] | 5.05 |  | showing tyrosinase inhibition activity

The remaining compounds from weak to strong by pIC50, led by results:

pIC50 | IC50 tyrosinase inhibition activity, in brackets by weight (same value as the μM figure) | tyrosinase inhibition activity (in words) | Compound
4.82 |  |  | Sophoraflavone I
5.30 |  | showing tyrosinase inhibition activity | C=C(C)C(CC=C(C)C)Cc1c2c(c(O)c3c1OC(c1ccc(O)cc1)C3c1cc(O)cc(O)c1)C(=O)CC(c1ccc(O)cc1O)O2 (stereo not drawn) [Alopecurone B]
